Laboratory results reported in patent publication US20180148418A1, “AMIDO-SUBSTITUTED CYCLOHEXANE DERIVATIVES” (Bayer Pharma Aktiengesellschaft, priority 2015, published 2018).

How the values were obtained:
[1] = tested on: HEK293 cells cotransfected with the FOP control vector; assay: HEK293 FOP assay (control reporter with non-functional TCF elements); assay type: cell-based; conditions: Homo sapiens, 16 hours
Outline: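 Compound series from 50 μM down to 15 nM, prediluted in DMSO then 50-fold into CAFTY buffer (pH 7.4, 2 mM Ca2+, 0.01% BSA), tested alongside TOP cells on a Geneticin-selected HEK293 FOP line whose TCF elements are replaced by a random sequence; recombinant human Wnt-3a applied at 2500-5 ng/ml.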

TNKS1 = target: T1, TNKS1 (Homo sapiens, UniProt O95271); assay: TNKS1 Assay B (auto-parsylation, [3H]-NAD+ SPA); assay type: biochemical; conditions: 6 nM TNKS1, auto-parsylation, over night at room temperature
T1 construct: purchased BPS Bioscience, San Diego, USA 80579 (TNKS1 Histone Ribosylation Assay Kit)
T1 sequence (O95271 1-1327): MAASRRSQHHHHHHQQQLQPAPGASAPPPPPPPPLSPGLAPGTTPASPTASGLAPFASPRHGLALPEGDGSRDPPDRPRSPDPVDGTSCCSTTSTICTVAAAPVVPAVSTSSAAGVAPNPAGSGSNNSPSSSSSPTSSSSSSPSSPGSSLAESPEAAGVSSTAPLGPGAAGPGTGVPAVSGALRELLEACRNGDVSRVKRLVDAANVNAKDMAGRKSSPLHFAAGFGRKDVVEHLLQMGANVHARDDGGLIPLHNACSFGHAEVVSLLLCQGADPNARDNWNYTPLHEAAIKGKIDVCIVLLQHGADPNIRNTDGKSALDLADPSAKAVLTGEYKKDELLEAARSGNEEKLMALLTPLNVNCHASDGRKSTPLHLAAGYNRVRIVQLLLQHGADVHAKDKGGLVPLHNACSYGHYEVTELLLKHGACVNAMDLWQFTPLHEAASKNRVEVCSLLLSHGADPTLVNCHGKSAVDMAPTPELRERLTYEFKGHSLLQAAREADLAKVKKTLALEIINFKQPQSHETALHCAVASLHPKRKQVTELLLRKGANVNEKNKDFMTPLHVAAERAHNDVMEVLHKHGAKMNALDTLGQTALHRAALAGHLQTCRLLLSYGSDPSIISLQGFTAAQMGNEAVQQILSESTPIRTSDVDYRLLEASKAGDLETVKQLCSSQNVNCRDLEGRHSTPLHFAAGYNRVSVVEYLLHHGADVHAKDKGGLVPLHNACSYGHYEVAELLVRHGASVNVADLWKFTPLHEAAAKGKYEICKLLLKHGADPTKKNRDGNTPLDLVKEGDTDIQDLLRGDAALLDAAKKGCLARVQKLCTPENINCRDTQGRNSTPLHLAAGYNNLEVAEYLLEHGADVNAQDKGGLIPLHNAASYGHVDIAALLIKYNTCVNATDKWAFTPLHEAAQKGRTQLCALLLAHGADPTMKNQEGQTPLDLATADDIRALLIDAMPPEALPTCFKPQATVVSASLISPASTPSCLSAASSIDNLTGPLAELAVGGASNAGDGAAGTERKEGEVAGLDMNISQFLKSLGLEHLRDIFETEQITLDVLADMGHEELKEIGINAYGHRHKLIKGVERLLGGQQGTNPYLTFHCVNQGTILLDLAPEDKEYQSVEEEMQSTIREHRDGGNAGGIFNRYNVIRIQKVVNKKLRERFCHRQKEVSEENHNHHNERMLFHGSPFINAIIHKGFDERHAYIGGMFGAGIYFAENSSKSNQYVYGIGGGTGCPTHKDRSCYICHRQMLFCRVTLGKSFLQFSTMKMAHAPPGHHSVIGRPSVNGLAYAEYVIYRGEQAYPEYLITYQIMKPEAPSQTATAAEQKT

Compound	IC50 (TNKS1)	IC50 [1]
COCCNC(=O)c1nc[nH]c1C(=O)N[C@H]1CC[C@@]2(CCN(c3cc(F)c(F)cc3Cl)C2=O)CC1 [Example 202, N^5-[(trans)-2-(2-chloro-4,5-difluorophenyl)-1-oxo-2-azaspiro[4.5]dec-8-yl]-N^4-(2-methoxyethyl)-1H-imidazole-4,5-dicarboxamide]	7.3 nM	39000 nM
Cc1cc(C)n2ncc(C(=O)N[C@H]3CC[C@@]4(CCN(c5cccc(Cl)c5)C4=O)CC3)c2n1 [Example 270, N-[(trans)-2-(3-chlorophenyl)-1-oxo-2-azaspiro[4.5]dec-8-yl]-5,7-dimethylpyrazolo[1,5-a]pyrimidine-3-carboxamide]	160 nM	≥ 50000 nM
O=C(N[C@H]1CC[C@@]2(CCN(c3ccccc3Cl)C2=O)CC1)c1cnc2cccnn12 [Example 271, N-[(trans)-2-(2-chlorophenyl)-1-oxo-2-azaspiro[4.5]dec-8-yl]imidazo[1,2-b]pyridazine-3-carboxamide]	15 nM	≥ 50000 nM
CNC(=O)c1nc[nH]c1C(=O)N[C@H]1CC[C@@]2(CCN(c3cc(F)c(F)cc3Cl)C2=O)CC1 [Example 196, N^5-[(trans)-2-(2-chloro-4,5-difluorophenyl)-1-oxo-2-azaspiro[4.5]dec-8-yl]-N^4-methyl-1H-imidazole-4,5-dicarboxamide]	6.7 nM	35000 nM
CN(C)c1ccn2ncc(C(=O)N[C@H]3CC[C@@]4(CCN(c5ccc(F)cc5Cl)C4=O)CC3)c2n1 [Example 217, N-[(trans)-2-(2-chloro-4-fluorophenyl)-1-oxo-2-azaspiro[4.5]dec-8-yl]-5-(dimethylamino)pyrazolo[1,5-a]pyrimidine-3-carboxamide]	6.1 nM	≥ 50000 nM
O=C(N[C@H]1CC[C@@]2(CCN(c3ccc(F)cc3Cl)C2=O)CC1)c1nc[nH]c1C(=O)NCC(F)(F)F [Example 195, N^4-[(trans)-2-(2-chloro-4-fluorophenyl)-1-oxo-2-azaspiro[4.5]dec-8-yl]-N^5-(2,2,2-trifluoroethyl)-1H-imidazole-4,5-dicarboxamide]	11 nM	≥ 50000 nM
CC(C)(C)OC(=O)N1CCN(c2ccn3ncc(C(=O)N[C@H]4CC[C@@]5(CCN(c6ccc(F)cc6Cl)C5=O)CC4)c3n2)CC1 [Example 225, tert-butyl 4-(3-{[(trans)-2-(2-chloro-4-fluorophenyl)-1-oxo-2-azaspiro[4.5]dec-8-yl]carbamoyl}pyrazolo[1,5-a]pyrimidin-5-yl)piperazine-1-carboxylate]	6 nM	≥ 50000 nM
O=C(N[C@H]1CC[C@@]2(CCN(c3ccc(F)cc3)C2=O)CC1)c1cnn2cccnc12 [Example 209, N-[(trans)-2-(4-fluorophenyl)-1-oxo-2-azaspiro[4.5]dec-8-yl]pyrazolo[1,5-a]pyrimidine-3-carboxamide]	1200 nM	≥ 50000 nM
O=C(N[C@H]1CC[C@@]2(CCN(c3cccc(Cl)c3)C2=O)CC1)c1cnn2cccnc12 [Example 268, N-[(trans)-2-(3-chlorophenyl)-1-oxo-2-azaspiro[4.5]dec-8-yl]pyrazolo[1,5-a]pyrimidine-3-carboxamide]	540 nM	≥ 50000 nM

Further compounds by falling IC50 (TNKS1), results first:

IC50 (TNKS1)	Compound	IC50 [1]
5600 nM	Cc1cc(C)n2ncc(C(=O)N[C@H]3CC[C@]4(CCN(c5ccc(F)cc5)C4=O)CC3)c2n1 [Example 208, N-[(cis)-2-(4-fluorophenyl)-1-oxo-2-azaspiro[4.5]dec-8-yl]-5,7-dimethyl pyrazolo[1,5-a]pyrimidine-3-carboxamide]	≥ 50000 nM
980 nM	CNC(=O)c1nc[nH]c1C(=O)N[C@H]1CC[C@H](C(=O)N(C)c2ccc(F)cc2)CC1 [Example 172, N^5-{trans-4-[(4-fluorophenyl)(methyl)carbamoyl]cyclohexyl}-N^4-methyl-1H-imidazole-4,5-dicarboxamide]	≥ 50000 nM
970 nM	C[C@]1(C(=O)Nc2ccc(F)cc2Cl)CC[C@H](NC(=O)c2cnn3cccnc23)CC1 [Example 179, N-{trans-4-[(2-chloro-4-fluorophenyl)carbamoyl]-4-methylcyclohexyl}pyrazolo[1,5-a]pyrimidine-3-carboxamide]	≥ 50000 nM
450 nM	CC(C)NC(=O)c1nc[nH]c1C(=O)N[C@H]1CC[C@@]2(CCN(c3cccc(Cl)c3)C2=O)CC1 [Example 278, N^5-[(trans)-2-(3-chlorophenyl)-1-oxo-2-azaspiro[4.5]dec-8-yl]-N^4-(propan-2-yl)-1H-imidazole-4,5-dicarboxamide]	≥ 50000 nM
390 nM	Cc1cnc2c(C(=O)N[C@H]3CC[C@@]4(CCN(c5ccc(F)cc5)C4=O)CC3)cnn2c1 [Example 210, N-[(trans)-2-(4-fluorophenyl)-1-oxo-2-azaspiro[4.5]dec-8-yl]-6-methylpyrazolo[1,5-a]pyrimidine-3-carboxamide]	25000 nM
260 nM	CCNC(=O)c1nc[nH]c1C(=O)N[C@H]1CC[C@@]2(CCN(c3cccc(Cl)c3)C2=O)CC1 [Example 277, N^5-[(trans)-2-(3-chlorophenyl)-1-oxo-2-azaspiro[4.5]dec-8-yl]-N^4-ethyl-1H-imidazole-4,5-dicarboxamide]	31000 nM
220 nM	O=C(N[C@H]1CC[C@@]2(CCN(c3cccc(Cl)c3)C2=O)CC1)c1[nH]cnc1C(=O)N1CC(F)C1 [Example 280, N-[(trans)-2-(3-chlorophenyl)-1-oxo-2-azaspiro[4.5]dec-8-yl]-4-[(3-fluoroazetidin-1-yl)carbonyl]-1H-imidazole-5-carboxamide]	≥ 50000 nM
71 nM	O=C(N[C@H]1CC[C@@]2(CCN(c3ccc(F)cc3Cl)C2=O)CC1)c1cnn2c(C(F)(F)F)ccnc12 [Example 233, N-[(trans)-2-(2-chloro-4-fluorophenyl)-1-oxo-2-azaspiro[4.5]dec-8-yl]-7-(trifluoromethyl)pyrazolo[1,5-a]pyrimidine-3-carboxamide]	≥ 50000 nM
20 nM	Cc1cc(C)n2ncc(C(=O)N[C@H]3CC[C@@]4(CCN(c5cc(C)c(F)cc5Cl)C4=O)CC3)c2n1 [Example 266, N-[(trans)-2-(2-chloro-4-fluoro-5-methylphenyl)-1-oxo-2-azaspiro[4.5]dec-8-yl]-5,7-dimethylpyrazolo[1,5-a]pyrimidine-3-carboxamide]	≥ 50000 nM
14 nM	COc1ccn2ncc(C(=O)N[C@H]3CC[C@@]4(CCN(c5ccc(F)cc5Cl)C4=O)CC3)c2n1 [Example 218, N-[(trans)-2-(2-chloro-4-fluorophenyl)-1-oxo-2-azaspiro[4.5]dec-8-yl]-5-methoxypyrazolo[1,5-a]pyrimidine-3-carboxamide]	≥ 50000 nM
7.5 nM	CNc1ccn2ncc(C(=O)N[C@H]3CC[C@@]4(CCN(c5ccc(F)cc5Cl)C4=O)CC3)c2n1 [Example 215, N-[(trans)-2-(2-chloro-4-fluorophenyl)-1-oxo-2-azaspiro[4.5]dec-8-yl]-5-(methylamino)pyrazolo[1,5-a]pyrimidine-3-carboxamide]	≥ 50000 nM
6.9 nM	O=C(N[C@H]1CC[C@@]2(CCN(c3cc(F)c(F)cc3Cl)C2=O)CC1)c1[nH]cnc1C(=O)N1CC(F)C1 [Example 200, N-[(trans)-2-(2-chloro-4,5-difluorophenyl)-1-oxo-2-azaspiro[4.5]dec-8-yl]-4-[(3-fluoroazetidin-1-yl)carbonyl]-1H-imidazole-5-carboxamide]	30000 nM
6.4 nM	Cc1cc(N2CC[C@]3(CC[C@@H](NC(=O)c4cnc5cccnn45)CC3)C2=O)c(Cl)cc1F [Example 265, N-[(trans)-2-(2-chloro-4-fluoro-5-methylphenyl)-1-oxo-2-azaspiro[4.5]dec-8-yl]imidazo[1,2-b]pyridazine-3-carboxamide]	≥ 50000 nM
